In patent US6855728B2, “Small-molecule modulators of hepatocyte growth factor / scatter factor activities” (North Shore-Long Island Jewish Health System, priority 2001, dated 2005):

How the values were obtained:
[1] = tested on: Endothelial cells (HUVECs); assay: Endothelial cell (HUVEC) proliferation assay, 3H thymidine incorporation, compound without added growth factor; type: cell-based, human
Method in brief: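 HUVECs grown 24 h in EGM-2, starved 1-2 h in RPMI-1% BSA, then exposed 24 h at 37 degrees C to compounds at 1 to 12 microgram/ml without added growth factors. Proliferation read as 3H thymidine incorporation over 4 to 5 h; human iliac artery endothelial cells also used similarly.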

[2] = tested on: HGF/SF induced proliferation of HUVEC; assay: Endothelial cell (HUVEC) proliferation assay in the presence of exogenously-added HGF/SF; type: cell-based, human
Method in brief: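 Serum-starved HUVECs were treated 24 h at 37°C with compounds at final 1 to 12 microgram/ml in RPMI-1% BSA. Proliferation was read as ³H-thymidine incorporation over 4 to 5 h, counted after NaOH lysis.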

[3] = tested on: growth of blood vessels from subcutaneous tissue into Matrigel; assay: In vivo blood vessel ingrowth assay (Matrigel); details: mice, Matrigel mixed with compound injected subcutaneously, 10 days
Experimental: Angiogenesis was assayed as growth of blood vessels from subcutaneous tissue into a solid gel of basement membrane containing the test compound. Matrigel in liquid form (0.5 ml) was mixed with a compound of the invention, or basic fibroblast growth factor as a control, and injected into the abdominal subcutaneous tissue of mice as previously described (Kibbey, M. C., Grant, D. S. Auerbach, R. and Kleinman, H. K. [1992] Role of the SIKVAV site of laminin in promotion of angiogenesis and tumor growth: an in vivo Matrigel model. J. Natl. Can. Inst. 84, 1633-38). After 10 days, mice were sacrificed and the Matrigel plugs were removed, fixed, sectioned, stained and examined for ingrowth of blood vessels.

[4] = tested on: FGF-mediated increase in endothelial cell proliferation; assay: Endothelial cell proliferation assay in the presence of FGF; type: cell-based; details: 1.5 micromolar
Experimental: (§1) Cell proliferation assays Endothelial cells (HUVECs) were seeded in 48 well plates at a density of 10,000 to 20,000 cells per well in the normal growth medium (EGM-2-Clonetics) containing 2% fetal bovine serum, FGF, VEGF, IGF, ascorbic acid, EGF, GA, heparin and hydrocortisone. The cells were grown normally in the growth medium for 24 hr at 37 degrees C. and 5% CO2. The cells were then rinsed with RPMI-1% BSA and starved for 1-2 hrs. The stock solutions of all the compounds were made at a concentration of 10 mg/ml in DMSO and diluted in RPMI-1% BSA at a final concentrations of 1 to 12 microgram/ml. The cells were then washed and treated with the compounds and incubated for another 24 hr at 37 degrees C. Then ^3H thymidine (0.5 microgram/ml in RPMI-BSA) was added to the cells and incubated at 37 degrees C. for 4 to 5 hours. The unincorporated thymidine was removed by washing the cells four times with 1× PBS. Then the cells were lysed with 0.5M NaOH for 30 min and the radioactivity counted in the beta counter.
(§2) In endothelial cell proliferation assays as described above, the effect of the compound 1-(4-chloro-3-methylphenyl)-3-(2,6-dichlorophenyl)-prop-2-en-1-one was evaluated in the presence of HGF/SF, VEGF or FGF for its effects on antagonizing the growth factor-induced stimulation of endothelial cell proliferation.

DU145 cells = assay: Clonogenic assay; type: cell-based; details: clonogenic assay over 7 days
Experimental: The effect of (4-(2-chloro-6-fluorobenzyl)-3,5-dimethyl-1H-pyrazole-1-yl)(3-(2,6-dichlorophenyl)-5-methylisoxazol-4-yl)methanone (FIG. 7) and 1-(4-chloro-3-methylphenyl)-3-(2,6-dichlorophenyl)-prop-2-en-1-one were evaluated in a clonogenic assay over 7 days.

[5] = tested on: VEGF-mediated increase in endothelial cell proliferation; assay: Endothelial cell proliferation assay in the presence of VEGF; type: cell-based; details: 1.5 micromolar
Experimental: as §1, §2

another cell line = assay: Anti-apoptotic activity assay in another cell line; type: cell-based
Experimental: Anti-apoptotic Activity Assay. The ability of compounds of the present invention to protect cells-from apoptosis was performed using a MTT viability assay with MDCK cells exposed to adriamycin (15 micromolar) to induce apoptosis. HGF/SF was evaluated as a positive control.
In another cell line, 90% protection was afforded by (4-chlorophenyl)[3-(2-(2-thienyl)vinyl)-1H-pyrazol-1-yl]methanone.

[6] = tested on: MDCK cells exposed to adriamycin; assay: Anti-apoptotic activity assay (MTT viability, adriamycin-induced apoptosis); type: cell-based
c-Met receptor = c-Met receptor (Homo sapiens, UniProt P08581); assay: HUVEC proliferation assay with free c-Met receptor (specificity); type: cell-based
Description: The following assays were used to evaluate the activity of the various compounds discussed herein. Certain of the compounds and groups thereof express-like activity, i.e., they induce scatter, cell proliferation, inhibit apoptosis, among other activities, and if acting through the c-Met receptor, agonize or stimulate c-Met receptor activity. The specificity for such compounds working through the c-Met receptor may be identified by performing the stimulation assay in the presence of free c-Met receptor. Reduction of a proliferative response in the presence of c-Met indicates such specificity.
Cell proliferation assays Endothelial cells (HUVECs) were seeded in 48 well plates at a density of 10,000 to 20,000 cells per well in the normal growth medium (EGM-2-Clonetics) containing 2% fetal bovine serum, FGF, VEGF, IGF, ascorbic acid, EGF, GA, heparin and hydrocortisone. The cells were grown normally in the growth medium for 24 hr at 37 degrees C. and 5% CO2. The cells were then rinsed with RPMI-1% BSA and starved for 1-2 hrs. […] Then the cells were lysed with 0.5M NaOH for 30 min and the radioactivity counted in the beta counter.
The specificity of the stimulation of endothelial cell growth by the compound as measured by ^3H-thymidine incorporation was tested by pre-incubation of cells with the HGF/SF receptor c-met. […]

MDCK cells = assay: Scatter assay; type: cell-based; details: 6 microgram/ml; microscopic examination
Experimental: Scatter Assay. A standard assay for scatter of MDCK cells was performed. Results were evaluated by microscopic examination.

[7] = tested on: mice following removal of the femoral artery; assay: In vivo blood flow improvement assay; details: administered to mice for seven days following removal of the femoral artery
[8] = tested on: human endometrial cancer cells; assay: Effect on growth of tumor cells; type: cell-based; details: 40 micrograms/ml
Experimental: Effect on growth of tumor cells. The activity of the compounds herein to promote or inhibit the growth of tumor cells was evaluated using human endometrial cancer cells.

Chain of c-Met receptor (P08581 25-1390): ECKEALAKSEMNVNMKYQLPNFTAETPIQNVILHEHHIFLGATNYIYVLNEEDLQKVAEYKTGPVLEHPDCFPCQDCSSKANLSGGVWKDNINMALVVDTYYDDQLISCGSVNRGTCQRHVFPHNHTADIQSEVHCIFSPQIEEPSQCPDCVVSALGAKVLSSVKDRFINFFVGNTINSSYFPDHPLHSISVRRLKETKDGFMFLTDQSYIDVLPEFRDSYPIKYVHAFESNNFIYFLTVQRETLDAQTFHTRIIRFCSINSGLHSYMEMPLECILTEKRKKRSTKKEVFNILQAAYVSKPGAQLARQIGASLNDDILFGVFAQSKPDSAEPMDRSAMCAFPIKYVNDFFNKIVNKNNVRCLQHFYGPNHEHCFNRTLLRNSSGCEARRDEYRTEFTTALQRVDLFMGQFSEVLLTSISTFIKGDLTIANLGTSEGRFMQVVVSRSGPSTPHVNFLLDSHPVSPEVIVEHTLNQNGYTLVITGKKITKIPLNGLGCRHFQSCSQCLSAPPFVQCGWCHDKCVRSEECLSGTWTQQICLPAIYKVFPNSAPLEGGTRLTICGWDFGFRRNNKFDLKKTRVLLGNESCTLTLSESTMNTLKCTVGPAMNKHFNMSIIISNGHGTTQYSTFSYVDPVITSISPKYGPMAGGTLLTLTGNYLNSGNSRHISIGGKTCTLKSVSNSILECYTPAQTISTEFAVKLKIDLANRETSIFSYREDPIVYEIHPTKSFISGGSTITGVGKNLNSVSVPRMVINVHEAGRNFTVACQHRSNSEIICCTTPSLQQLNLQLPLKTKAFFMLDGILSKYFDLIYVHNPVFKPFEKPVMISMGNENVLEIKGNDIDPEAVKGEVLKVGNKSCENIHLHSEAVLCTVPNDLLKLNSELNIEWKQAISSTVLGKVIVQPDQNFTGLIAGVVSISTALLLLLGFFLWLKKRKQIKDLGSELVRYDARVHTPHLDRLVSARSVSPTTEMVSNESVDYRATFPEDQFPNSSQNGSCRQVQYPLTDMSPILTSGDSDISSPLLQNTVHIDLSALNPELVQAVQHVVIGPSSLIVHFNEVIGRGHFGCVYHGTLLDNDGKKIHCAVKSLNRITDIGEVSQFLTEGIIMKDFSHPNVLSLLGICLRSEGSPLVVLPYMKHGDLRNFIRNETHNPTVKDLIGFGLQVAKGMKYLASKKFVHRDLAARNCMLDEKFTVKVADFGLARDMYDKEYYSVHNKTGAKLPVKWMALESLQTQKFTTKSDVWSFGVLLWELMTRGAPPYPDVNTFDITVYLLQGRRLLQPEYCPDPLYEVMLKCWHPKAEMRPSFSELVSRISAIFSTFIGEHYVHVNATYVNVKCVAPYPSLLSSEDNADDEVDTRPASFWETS

## Cc1cc(C(=O)C=Cc2c(Cl)cccc2Cl)ccc1Cl [1-(4-chloro-3-methylphenyl)-3-(2,6-dichlorophenyl)-prop-2-en-1-one]
[1]; 1 ug/ml, without HGF/SF
  Activity at 1 ug/ml concentration Without HGF/SF (result in words): No effect at 1 ug/ml
[2]; 1.5 micromolar
  effect on HGF/SF-mediated increase in endothelial cell proliferation: suppressed
[2]; 6-12 micrograms/ml, with HGF/SF, inhibition of endothelial cell proliferation
  Inhibition at 6-12 micrograms/ml With: 40-80% inhibition
[3]
  ingrowth of blood vessels into Matrigel plug: nearly complete inhibition of blood vessel ingrowth
[4]
  effect on FGF-mediated increase in endothelial cell proliferation: suppressed
DU145 cells
  DU145 cell growth: dose responsive inhibition
[5]
  effect on VEGF-mediated increase in endothelial cell proliferation: suppressed

## O=C(c1ccc(Cl)cc1)n1ccc(C=Cc2cccs2)n1 [(4-chlorophenyl)[3-(2-(2-thienyl)vinyl)-1H-pyrazol-1-yl]methanone]
[1]; compound by itself, 6 microgram/ml
  stimulation of 3H-thymidine incorporation: 84%
Another cell line
  protection from adriamycin-induced apoptosis: 90%
[6]; MDCK cells
  protection from adriamycin-induced apoptosis: 94%
[6]; without adriamycin
  cell viability, substance alone: unchanged
c-Met receptor; compound 6 microgram/ml plus c-Met receptor 100 microgram/ml
  inhibition of the compound's stimulation of 3H-thymidine incorporation in the presence of c-Met: 75%
c-Met receptor; compound 12 microgram/ml incubated with C-met receptor 5 microgram/ml for 30 min, then added to cells
  compound-induced EC proliferation blocked in the presence of C-met receptor: 40%
MDCK cells
  scatter of MDCK cells: caused scattering of MDCK cells similar to that seen with HGF/SF
[7]
  blood flow: significant improvement in blood flow

## Cc1nn(C(=O)c2c(-c3c(Cl)cccc3Cl)noc2C)c(C)c1Cc1c(Cl)cccc1Cl [[4-(2,6-dichlorobenzyl)-3,5-dimethyl-1H-pyrazol-1-yl][3-(2,6-dichlorophenyl)-5-methylisoxazol-4-yl]methanone]
[1]
  effect on HUVEC proliferation, substance alone (FIG. 5): no effect
[2]; 12 micrograms/ml
  blockage of HGF/SF induced proliferation of HUVEC: 40-60%
[2]; combination of HGF/SF and the compound
  effect on HGF/SF-mediated stimulation of HUVEC proliferation (FIG. 5): significant suppression
[8]
  inhibition at 40 µg/mL: 40 to 50%
